Data taken from ChEMBL document CHEMBL5108045, “Identification and Utilization of a Chemical Probe to Interrogate the Roles of PIKfyve in the Lifecycle of β-Coronaviruses” (J Med Chem, 2022).
The source made the active and inactive calls. The calls are words filed in the database; no cut-off is given here.

What was measured:
HEK-293T = assay: (§1) Inhibition of His-6 tagged SARS-CoV-2 spike protein uptake in ACE2 overexpressing HEK293T cells at 1 uM incubated for 30 mins by DAPI staining based confocal microscopy analysis; type: functional; conditions: Homo sapiens
[1] = as §1; type: functional; conditions: Homo sapiens, HEK-293T, 0.5 h

With `Cc1cccc(/C=N/Nc2cc(N3CCOCC3)nc(OCCc3ccccn3)n2)c1` the inhibition (HEK-293T) was “Active”.
`CC(C)(O)C#Cc1ccc2[nH]c3c(c2c1)-c1nc(N)ncc1CCC3` gave an inhibition at 1 µM [1] of less than 10%.
In the case of `CN(C)CC#Cc1ccc2[nH]c3c(c2c1)-c1nc(N)ncc1CCC3`, the inhibition (HEK-293T) is reported as “Active”.
For `Nc1ncc2c(n1)-c1c([nH]c3ccc(-c4ccc(F)cc4)cc13)CCC2`, the inhibition (HEK-293T) was “Active”.
